Type in all cases: biochemical
The target of experiment [1] is T1, recombinant human MAO-A (monoamine oxidase-A) (Homo sapiens, UniProt P21397).
T1 construct: purchased Sigma-Aldrich
T1 sequence (P21397 1-527): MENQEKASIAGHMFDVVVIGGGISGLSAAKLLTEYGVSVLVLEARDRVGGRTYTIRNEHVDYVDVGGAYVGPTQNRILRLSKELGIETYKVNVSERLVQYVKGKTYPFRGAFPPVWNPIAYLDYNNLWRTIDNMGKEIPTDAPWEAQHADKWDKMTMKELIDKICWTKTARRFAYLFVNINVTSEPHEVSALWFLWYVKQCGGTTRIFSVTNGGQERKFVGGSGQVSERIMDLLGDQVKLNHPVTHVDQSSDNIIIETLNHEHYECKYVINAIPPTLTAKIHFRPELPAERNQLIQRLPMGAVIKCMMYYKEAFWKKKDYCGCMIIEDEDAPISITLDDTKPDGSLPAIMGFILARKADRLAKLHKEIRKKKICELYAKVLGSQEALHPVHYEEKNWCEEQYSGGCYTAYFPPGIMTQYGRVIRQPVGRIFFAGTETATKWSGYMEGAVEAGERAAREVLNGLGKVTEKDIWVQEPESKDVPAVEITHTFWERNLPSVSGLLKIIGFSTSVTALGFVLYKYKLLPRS
The experiment can be described thus: Activity evaluation on recombinant human MAO-A (Amplex Red/HRP-coupled assay, 0.5 mM tyramine substrate). The note with it: read-out: Inhibitory Activity (IC50, nM) MAO-A. The method in brief: (§1)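 Compounds preincubated 30 min at 37 °C with enzyme in 50 mM sodium phosphate pH 7.4 (final DMSO <1%, 8-point 1:3 dilutions); reaction started with 200 uM Amplex Red, 1 U/mL HRP and substrate (MAO-A 0.5 mM tyramine, MAO-B 1 mM benzylamine, DAO 1 mM putrescine). Resorufin fluorescence (ex 544/em 590 nm) followed over 1-2 h; IC50 from four-parameter logistic fit.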

Experiment [2] has as its target T2, recombinant human DAO (diamine oxidase) (Homo sapiens, UniProt P19801).
T2 construct: purchased R&D systems
T2 sequence (P19801 20-751): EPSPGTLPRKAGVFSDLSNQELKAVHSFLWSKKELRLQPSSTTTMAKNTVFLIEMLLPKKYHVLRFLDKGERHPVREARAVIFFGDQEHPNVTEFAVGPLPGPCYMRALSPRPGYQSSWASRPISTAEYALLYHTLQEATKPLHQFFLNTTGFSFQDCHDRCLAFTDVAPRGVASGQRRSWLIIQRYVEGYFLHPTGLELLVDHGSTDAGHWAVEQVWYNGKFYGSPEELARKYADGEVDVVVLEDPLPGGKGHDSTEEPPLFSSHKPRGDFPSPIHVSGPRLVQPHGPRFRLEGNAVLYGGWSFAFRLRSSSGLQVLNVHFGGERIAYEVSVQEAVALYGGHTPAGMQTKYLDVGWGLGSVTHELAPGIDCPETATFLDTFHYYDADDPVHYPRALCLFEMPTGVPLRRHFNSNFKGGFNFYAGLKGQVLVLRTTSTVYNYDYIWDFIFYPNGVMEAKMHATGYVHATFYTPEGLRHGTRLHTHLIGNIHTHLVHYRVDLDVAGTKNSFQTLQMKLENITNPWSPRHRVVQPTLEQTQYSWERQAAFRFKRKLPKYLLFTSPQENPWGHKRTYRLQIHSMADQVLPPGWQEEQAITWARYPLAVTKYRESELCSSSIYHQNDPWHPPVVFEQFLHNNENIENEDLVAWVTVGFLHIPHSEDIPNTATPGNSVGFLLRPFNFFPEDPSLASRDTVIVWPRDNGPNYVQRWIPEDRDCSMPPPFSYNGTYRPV
The experiment can be described thus: Activity evaluation on recombinant human DAO (Amplex Red/HRP-coupled assay, 1 mM putrescine substrate). To be noted: read-out: Inhibitory Activity (IC50, nM) DAO. The method in brief: as §1

Another experiment has as its target T3, recombinant human VAP-1 (Homo sapiens, UniProt Q16853).
T3 construct: purchased R&D systems
T3 sequence (Q16853 1-763): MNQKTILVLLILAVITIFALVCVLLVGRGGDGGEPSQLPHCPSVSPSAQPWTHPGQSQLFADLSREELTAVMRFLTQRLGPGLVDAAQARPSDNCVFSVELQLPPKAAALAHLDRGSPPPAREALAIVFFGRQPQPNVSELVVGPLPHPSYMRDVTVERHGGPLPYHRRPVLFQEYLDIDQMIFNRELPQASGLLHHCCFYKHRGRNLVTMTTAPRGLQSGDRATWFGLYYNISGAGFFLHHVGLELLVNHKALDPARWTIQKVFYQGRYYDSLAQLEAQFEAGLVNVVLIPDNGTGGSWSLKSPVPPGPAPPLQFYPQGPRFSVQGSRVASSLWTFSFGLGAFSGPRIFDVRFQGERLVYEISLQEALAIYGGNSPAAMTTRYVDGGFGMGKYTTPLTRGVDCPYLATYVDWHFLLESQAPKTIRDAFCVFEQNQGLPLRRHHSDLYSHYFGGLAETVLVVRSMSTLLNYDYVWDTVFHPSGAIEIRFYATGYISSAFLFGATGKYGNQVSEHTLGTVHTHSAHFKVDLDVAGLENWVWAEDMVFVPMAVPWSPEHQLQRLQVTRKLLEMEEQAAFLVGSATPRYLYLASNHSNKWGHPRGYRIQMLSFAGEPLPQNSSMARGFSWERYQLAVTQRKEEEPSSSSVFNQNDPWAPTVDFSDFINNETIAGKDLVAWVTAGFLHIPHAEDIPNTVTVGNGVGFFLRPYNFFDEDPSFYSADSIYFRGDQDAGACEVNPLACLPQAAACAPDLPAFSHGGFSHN
The experiment can be described thus: Activity evaluation on recombinant human VAP-1 (Amplex Red/HRP-coupled hydrogen peroxide assay, benzylamine substrate). The note with it: read-out: Inhibitory Activity (IC50, nM) human VAP-1. Put shortly:
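Recombinant human VAP-1 in 50 mM sodium phosphate pH 7.4 preincubated 30 min at 37 °C with compound (8-point 1:3 series, <1% DMSO), then 1 mM benzylamine, 200 uM Amplex Red, 1 U/mL HRP added. H2O2-derived resorufin fluorescence (ex 544/em 590) followed 1–2 h; IC50 from four-parameter fit of rate inhibition.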

The target in experiment [3] is T4, recombinant human MAO-B (monoamine oxidase-B) (Homo sapiens, UniProt P27338).
T4 construct: purchased Sigma-Aldrich
T4 sequence (P27338 1-520): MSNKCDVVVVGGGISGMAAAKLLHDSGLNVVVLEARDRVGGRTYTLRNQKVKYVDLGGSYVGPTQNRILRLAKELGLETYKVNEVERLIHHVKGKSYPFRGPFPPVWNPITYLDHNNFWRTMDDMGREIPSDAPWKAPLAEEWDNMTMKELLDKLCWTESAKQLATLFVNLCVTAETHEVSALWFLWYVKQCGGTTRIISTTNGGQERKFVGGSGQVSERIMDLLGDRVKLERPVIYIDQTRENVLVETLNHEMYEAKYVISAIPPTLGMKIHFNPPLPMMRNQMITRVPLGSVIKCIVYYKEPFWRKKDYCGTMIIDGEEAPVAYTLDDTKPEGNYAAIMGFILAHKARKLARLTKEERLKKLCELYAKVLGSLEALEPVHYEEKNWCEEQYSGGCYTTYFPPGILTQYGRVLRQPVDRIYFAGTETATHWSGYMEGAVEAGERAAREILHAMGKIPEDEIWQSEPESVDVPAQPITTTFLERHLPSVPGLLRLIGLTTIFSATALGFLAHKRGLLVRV
The experiment can be described thus: Activity evaluation on recombinant human MAO-B (Amplex Red/HRP-coupled assay, 1 mM benzylamine substrate). The note with it: read-out: Inhibitory Activity (IC50, nM) MAO-B. Put shortly: as §1

Where [4] appears, read: recombinant human VAP-1, 30 min preincubation at 37° C., 1 mM benzylamine.
Where [5] appears, read: recombinant human VAP-1, benzylamine substrate.

Where a name gives a salt, the structure may show the parent alone. Read-outs that look alike come from different tables or passages of the source.

As for `NCC(Cn1ncn(Cc2ccc(-c3cnc(N)nc3)s2)c1=O)=C(F)F` [Example 116, 2-[2-(aminomethyl)-3,3-difluoro-allyl]-4-[[5-(2-aminopyrimidin-5-yl)-2-thienyl]methyl]-1,2,4-triazol-3-one Trifluoroacetate], the half-maximal inhibitory concentration (IC50) (commonly the point on the concentration scale where inhibition reaches its midpoint) in experiment [1] (0.5 mM tyramine) was above 100000 nM; in experiment [2] (1 mM putrescine), above 100000 nM; at recombinant human VAP-1 (setting [4]), 1.4 nM; in experiment [3] (1 mM benzylamine), above 10000 nM.

On to `CCn1cc(-c2cccc(-n3cnn(CC(CN)=C(F)F)c3=O)n2)ccc1=O` [Example 218, 5-[6-[1-[2-(aminomethyl)-3,3-difluoro-allyl]-5-oxo-1,2,4-triazol-4-yl]-2-pyridyl]-1-ethyl-pyridin-2-one Trifluoroacetate], for which the IC50 in experiment [1] (0.5 mM tyramine substrate) is above 100000 nM; in experiment [2] (1 mM putrescine substrate), 130 nM; at recombinant human VAP-1 (setting [5]), 0.8 nM; in experiment [3] (1 mM benzylamine substrate), above 100000 nM.

`CN(C)c1ccc(-c2ccccc2Cn2cnn(CC(CN)=C(F)F)c2=O)cn1` [Example 281, 2-[2-(aminomethyl)-3,3-difluoro-allyl]-4-[[2-[6-(dimethylamino)-3-pyridyl]phenyl]methyl]-1,2,4-triazol-3-one Trifluoroacetate]: the half-maximal inhibitory concentration (IC50) in experiment [1] (0.5 mM tyramine substrate) is above 100000 nM; in experiment [2] (1 mM putrescine substrate), 4860 nM; at recombinant human VAP-1 (setting [5]), 307 nM; in experiment [3] (1 mM benzylamine substrate), above 100000 nM.

Regarding `Cn1cc(-c2ccc(Cn3cnn(CC(CN)=C(F)F)c3=O)s2)cn1` [Example 296, 2-[2-(aminomethyl)-3,3-difluoro-allyl]-4-[[5-(1-methylpyrazol-4-yl)-2-thienyl]methyl]-1,2,4-triazol-3-one Trifluoroacetate], the 50% inhibitory concentration (IC50) in experiment [1] (0.5 mM tyramine substrate) is above 100000 nM; in experiment [2] (1 mM putrescine substrate), above 100000 nM; at recombinant human VAP-1 (setting [5]), 1 nM; in experiment [3] (1 mM benzylamine substrate) it was above 100000 nM.

`CC(C)n1cc(-c2ccc(Cn3cnn(CC(CN)=C(F)F)c3=O)s2)cn1` [Example 184, 2-[2-(aminomethyl)-3,3-difluoro-allyl]-4-[[5-(1-isopropylpyrazol-4-yl)-2-thienyl]methyl]-1,2,4-triazol-3-one Trifluoroacetate]: the half-maximal inhibitory concentration (IC50) is above 100000 nM in experiment [1] (0.5 mM tyramine substrate), 72000 nM in experiment [2] (1 mM putrescine substrate), 2.6 nM on recombinant human VAP-1 (setting [5]) and 26000 nM in experiment [3] (1 mM benzylamine substrate).

For `NCC(Cn1ncn(Cc2cc3cc(-c4ccc5c(c4)OCO5)ccc3s2)c1=O)=C(F)F` [Example 209, 2-[2-(aminomethyl)-3,3-difluoro-allyl]-4-[[5-(1,3-benzodioxol-5-yl)benzothiophen-2-yl]methyl]-1,2,4-triazol-3-one Trifluoroacetate], the IC50 in experiment [1] (0.5 mM tyramine substrate) is above 100000 nM; in experiment [2] (1 mM putrescine substrate), 93700 nM; at recombinant human VAP-1 (setting [5]) it was 4.3 nM; in experiment [3] (1 mM benzylamine substrate), 5180 nM.

As for `CCn1cc(-c2cnc(-n3cnn(CC(CN)=C(F)F)c3=O)c(C)c2)cn1` [Example 75, 2-[2-(aminomethyl)-3,3-difluoro-allyl]-4-[5-(1-ethylpyrazol-4-yl)-3-methyl-2-pyridyl]-1,2,4-triazol-3-one Trifluoroacetate], the IC50 in experiment [1] (0.5 mM tyramine) is above 100000 nM; in experiment [2] (1 mM putrescine), 20000 nM; at recombinant human VAP-1 (setting [4]), 0.7 nM; in experiment [3] (1 mM benzylamine), above 100000 nM.

Take `Cc1c(-c2ccc(C(F)(F)F)nc2)cccc1-n1cnn(CC(CN)=C(F)F)c1=O` [Example 255, 2-[2-(aminomethyl)-3,3-difluoro-allyl]-4-[2-methyl-3-[6-(trifluoromethyl)-3-pyridyl]phenyl]-1,2,4-triazol-3-one Trifluoroacetate]: the IC50 was above 100000 nM in experiment [1] (0.5 mM tyramine substrate), 35000 nM in experiment [2] (1 mM putrescine substrate), 2.3 nM at recombinant human VAP-1 (setting [5]) and above 100000 nM in experiment [3] (1 mM benzylamine substrate).

With `Cc1c(-c2cnn(C(C)C)c2)cccc1-n1cnn(CC(CN)=C(F)F)c1=O` [Example 262, 2-[2-(aminomethyl)-3,3-difluoro-allyl]-4-[3-(1-isopropylpyrazol-4-yl)-2-methyl-phenyl]-1,2,4-triazol-3-one Trifluoroacetate], the 50% inhibitory concentration (IC50) in experiment [1] (0.5 mM tyramine substrate) is above 100000 nM; in experiment [2] (1 mM putrescine substrate) it was above 100000 nM; at recombinant human VAP-1 (setting [5]), 7.4 nM; in experiment [3] (1 mM benzylamine substrate), above 100000 nM.

For the molecule `Cc1cc(-c2cccc(-c3cc[nH]n3)c2)cnc1-n1cnn(CC(CN)=C(F)F)c1=O` [Example 232, 2-[2-(aminomethyl)-3,3-difluoro-allyl]-4-[3-methyl-5-[3-(1H-pyrazol-3-yl)phenyl]-2-pyridyl]-1,2,4-triazol-3-one Trifluoroacetate], the half-maximal inhibitory concentration (IC50) in experiment [1] (0.5 mM tyramine substrate) was above 100000 nM; in experiment [2] (1 mM putrescine substrate), 15000 nM; at recombinant human VAP-1 (setting [5]), 0.5 nM; in experiment [3] (1 mM benzylamine substrate), 1100 nM.

On to `NCC(Cn1ncn(Cc2ccc(-c3ccc4c(c3)C(=O)NCC4)s2)c1=O)=C(F)F` [Example 132, 7-[5-[[1-[2-(aminomethyl)-3,3-difluoro-allyl]-5-oxo-1,2,4-triazol-4-yl]methyl]-2-thienyl]-3,4-dihydro-2H-isoquinolin-1-one Trifluoroacetate], for which the IC50 in experiment [1] (0.5 mM tyramine) was above 100000 nM; in experiment [2] (1 mM putrescine) it was above 100000 nM; at recombinant human VAP-1 (setting [4]), 0.2 nM; in experiment [3] (1 mM benzylamine), above 100000 nM.

(Values after patent US11168073B2, “3,3-difluoroallylamines or salts thereof and pharmaceutical compositions comprising the same” (YUHAN CORPORATION, priority 2018, dated 2021).)
